Laboratory results reported in patent US11505592B2, “Diagnosis and therapy of multiple sclerosis” (PRINDEX S.R.L., priority 2015, dated 2022).

System: MO3-13 cells
Assay: Determination of reactive oxygen species (DCF fluorescence) in MO3-13 cells
Format: cell-based, human
Conditions: 50 μM peptide 30 min
Experimental: FIG. 10A: DDSK peptide reverts the effects of Ig from MS patients on ROS levels in MO3-13 cells. MO3-13 cells were grown to semi-confluence in 24 multiwell plates and incubated for 18 h in medium containing 0.2% FBS. The cells were washed twice with FBS free medium, incubated with 50 μM of DDSK for 30 min and then with 200 μg/ml of IgG from Control (IgGCtr) or MS (IgGMS) patients for 30 min. Then, the cells were incubated with 10 μM DCHF-DA for 10 min, washed three times and DCF fluorescence was measured using a plate reader fluorometer. The histograms show the mean+/−SEM values obtained in 5 different experiments from 7 control and 7 MS subjects. # p<0.05 vs IgGCtr; *p<0.05 vs IgGMS.
MO3-13 cells were grown to semi-confluence in 24 multiwell plates and incubated for 18 h in medium containing 0.2% FBS. The cells were washed twice with FBS free medium, incubated with 50 μM of Scrambled peptide (Sc) for 30 min and then with 200 μg/ml of IgG from Control (IgGCtr) or MS (IgGMS) patients for 30 min. Then, the cells were incubated with 10 μM DCHF-DA for 10 min, washed three times and DCF fluorescence was measured using a plate reader fluorometer. The histograms show the mean+/−SEM values obtained from 3 control and 3 MS subjects. *p<0.05 vs IgGCtr.
ROS levels were determined using the membrane-permeant fluorogenic probe 5,6-carboxy-2′,7′-dichlorofluoresceindiacetate, DCHFDA (Molecular Probes, Leiden, the Netherlands). The assay was based on the fluorescence detection of dichlorofluorescein (DCF), formed by ROS-mediated oxidation of the non-fluorescent precursor, dichlorofluorescin.
MO3-13 cells were grown to semi-confluence in 24 multiwell plates (45000 cell/well) and incubated for 18 h in medium containing 0.2% FBS before the experiments. […] DCF fluorescence was measured using the plate reader Fluoroskan Ascent FL fluorometer (Thermo Electron Oy, Vantaa, Finland) and data analyzed by Ascent software.

## DDSKVFKEGS
Then 200 μg/ml IgG MS 30 min
  effect of peptide preincubation on ROS levels of IgG MS treated cells: reverted the effect
Then 200 μg/ml IgGCtr 30 min
  effect of peptide preincubation on ROS levels of IgGCtr treated samples: did not significantly affect
